Results on two substances are retold here after patent publication US11634712B2, “Nucleic acid simultaneously inhibiting expression of mTOR gene and STAT3 gene” (CURIGIN CO., LTD., priority 2017, dated 2023).

In one data set the test system is mTOR gene. Kind of data set: mTOR expression after mTOR siRNA and/or STAT3 siRNA transfection of A549, real-time PCR. The data set is classed as cell-based, human. The conditions noted are these: A549, 48 hours after transfection, relative to control siRNA nc2 = 1.0000. For orientation: Quantitative PCR measures a nucleic acid by following its amplification.
In the next data set the test system is STAT3 gene. The experiment in a line: STAT3 expression after mTOR siRNA and/or STAT3 siRNA transfection of A549, real-time PCR. The data set is classed as cell-based, human. The following applies: A549, 48 hours after transfection, relative to control siRNA nc2 = 1.0000.

d = 2'-deoxy (DNA); r = 2'-OH (RNA)

For the substance “siSTAT3: siRNA targeting the only STAT3; SEQ ID NOS: 24 and 25 (chain 1 UGUUCUCUGAGACCCAUGATT; chain 2 UCAUGGGUCUCAGAGAACATT; sugars from the 5' end r19 d2, backbone not given here)”, the mTOR expression level with mTOR gene is 1.0507. The STAT3 expression level with STAT3 gene was 0.6074.

On to “simTOR: siRNA targeting the only mTOR; SEQ ID NOs: 22 and 23 (chain 1 GUGGAAACAGGACCCAUGATT; chain 2 UCAUGGGUCCUGUUUCCACTT; sugars from the 5' end r19 d2, backbone not given here)”, for which the mTOR expression level in the data set on mTOR gene was determined as 0.1980. This substance registered an STAT3 expression level in the data set on STAT3 gene of 1.0705.
